From patent US20180258180A1, “COMBINATION THERAPY INVOLVING ANTIBODIES AGAINST CLAUDIN 18.2 FOR TREATMENT OF CANCER” (Ganymed Pharmaceuticals AG, priority 2012, published 2018)

Columns and labels:
[1] = system: CLDN18.2; assay: Extracellular detection of CLDN18.2 on treated KatoIII cells by flow cytometry; assay type: cell-based, human; conditions: 96 hours, FIG. 1
Description: (§1) KatoIII cells, a human gastric tumor cell line, was cultivated in RPMI 1640 medium (Invitrogen) containing 20% FCS (Perbio) and 2 mM Glutamax (Invitrogen) at 37° C. and 5% CO2, with or without cytostatic compounds. Epirubicin (Pfizer) was tested at a concentration of 10 or 100 ng/ml, 5-FU (Neofluor from NeoCorp AG) was tested at a concentration of 10 or 100 ng/ml, and oxaliplatin (Hospira) was tested at a concentration of 50 or 500 ng/ml. A combination of all 3 compounds (EOF; epirubicin 10 ng/ml, oxaliplatin 500 ng/ml, 5-FU 10 ng/ml) was also used. 8×10^5 KatoIII cells were cultivated for 96 hours without medium change or for 72 hours followed by 24 hours cultivation in standard medium to release cells from cell cycle arrest in a 6-well tissue culture plate at 37° C., 5% CO2. Cells were harvested with EDTA/trypsin, washed and analysed.
As secondary reagent goat-anti-huIgG-APC from Dianova was used.

[2] = system: KatoIII cells; assay: Cell cycle analysis of KatoIII cells treated with cytostatic compounds; assay type: cell-based, human; conditions: for cell cycle phase in which cells are predominantly arrested/enriched: KatoIII cells, 96 hours; for cell cycle arrest phase: KatoIII cells pretreated for 4 days
Description: as §1
Cell cycle stages were determined based on measurement of cellular DNA content. This allows one to discriminate between cells in the G1-, S- or G2-phase of the cell cycle. In the S-phase DNA duplication occurs whereas in the G2-phase cells grow and prepare for mitosis. Cell cycle analysis was done using the CycleTEST PLUS DNA Reagent Kit from BD Biosciences following the manufacturer's protocol. Flow cytometry acquisition and analysis were performed by using BD FACS CantoII (BD Biosciences) and FlowJo (Tree Star) software.
(§2) KatoIII cells were pretreated for 4 days with Irinotecan or Docetaxel and analysed for CLDN18.2 expression and cell cycle arrest.

[3] = system: KatoIII cells; assay: IMAB362 induced ADCC / viability of pretreated KatoIII cells (luciferase); assay type: cell-based, human; conditions: KatoIII pretreated for 3 days; for level of viable cells compared to medium cultivated target cells: Irinotecan 1000 ng/ml, Docetaxel 5 ng/ml, Cisplatin 2000 ng/ml
Description: Peripheral blood mononuclear cells (PBMCs) including NK cells, monocytes, mononuclear cells or other effector cells from healthy human donors were purified by Ficoll Hypaque density centrifugation. Washed effector cells were seeded in X-Vivo medium. KatoII cells which express CLDN18.2 endogenously and are of gastric origin were used as target cells in this setting. Target cells stably expressed luciferase, lucifer yellow, which is oxidized by viable cells only.

[4] = system: claudin18.2; assay: claudin18.2 expression in pretreated KatoIII cells; assay type: cell-based, human; conditions: KatoIII pretreated for 3 days; Irinotecan 1000 ng/ml, Docetaxel 5 ng/ml, Cisplatin 2000 ng/ml
[5] = system: KatoIII cells; assay: Cell growth of KatoIII cells pretreated with Irinotecan or Docetaxel; assay type: cell-based, human; conditions: KatoIII cells pretreated for 4 days
From the text: as §2

[6] = system: CLS103
Description: (§3) Furthermore, human stomach cancer cells (NUGC-4-luciferase) and murine stomach cancer cells (CLS103-calcein stained) were pretreated with or w/o 5 μM ZA for 2 days. Human Vγ9Vδ2 T cells were MACS purified (day 14) and co-cultured with the cancer cells for 24 h. Cytotoxicity of Vγ9V52 T cells towards non-treated and ZA-treated target cells was determined by measuring remaining luciferase activity or calcein fluorescence; cf. FIG. 11b. Target cells (NUGC-4 and CLS103) were pretreated with or w/o 5 μM ZA for 2 days and subsequently incubated for 4 h with mitomycin c ([…]) to stop proliferation. MACS purified human 14d old resting Vγ9V62 T cells and ^3H-thymidine were added to the target cells and co-cultures were incubated for 48 h at 37° C. Proliferation was determined by measuring ^3H thymidine incorporation in the DNA using a MicroBeta scintillation counter. Proliferation of target cells not treated with ZA and w/o Vγ9Vδ2 T cells was set to 100%; cf. FIG. 11c.

[7] = system: PBMCs; assay: Expansion of PBMC cultures with ZA/IL-2; assay type: cell-based, human; conditions: 14 days, 300 U/ml IL-2
Description: PBMCs were harvested from healthy human donors and cultures were treated with a single dose of ZA. […] FIG. 8a. […] FIG. 8b. Increase in cell numbers was determined by counting living cells on day 6, 8, 11 and 14.

[8] = system: Vγ9Vδ2 T cells; assay: Enrichment of Vγ9Vδ2 T cells co-cultured with monocytes ± ZA; assay type: cell-based, human; conditions: co-culture 14 days, ±1 μM ZA
Description: The enrichment of Vγ9Vδ2 T cells in the co-cultures after 14 days was determined by multicolor FACS, whereas the expansion of the culture was considered in the calculation. The enrichment factor of Vγ9Vδ2 T cells cultured with monocytes in a 1:4 ratio was set to 100% for each experiment. […] This effect was clearly ZA-dependent; cf. FIG. 11a.

[9] = system: NUGC-4; assay type: cell-based, human
Description: as §3

[10] = target: Claudin 18 splice variant 2 (CLDN18.2), human (human)
[11] = system: HEK293~CLDN18.2 transfectants; assay: Early treatment of HEK293~CLDN18.2 tumor xenografts; assay type: in vivo, nude mice; conditions: isotype control, twice per week for 6 weeks
From the text: Moreover, advanced tumor treatment experiments were initiated up to 9 days after tumor cell inoculation when tumors had reached volumes of about 60-120 mm^3.
Nude mice were subcutaneously inoculated with 1×10^7 HEK293˜CLDN18.2 transfectants. Treatment of 10 mice per group started 3 days after tumor inoculation. […] Not only time to death was prolonged, but 4 of 10 mice survived the entire observation period of 210 days.

[12] = system: NUGC-4 xenografts; assay: Biodistribution of Dyelight 680-labeled antibodies in NUGC-4 xenografted nude mice; conditions: negative control, NUGC-4 negative for CD20

`O=c1[nH]cc(F)c(=O)[nH]1` [5-FU, 5-fluoro-1H-pyrimidine-2,4-dione] was tested, and the CLDN18.2-expression [1] was “stabilize” and the “cell cycle phase in which cells are predominantly arrested/enriched” value [2] was “S-phase”.

`N.N.[Cl][Pt][Cl]` [Cisplatin, cis-diamminedichloroplatinum(II)] was tested, and the “potency of IMAB362 to induce ADCC after pretreatment of target cells” value (“potency of IMAB362 to induce ADCC” for short) [3] was “augmented”, the “level of viable cells compared to medium cultivated target cells” value [3] was “lower level of viable cells” and the “claudin18.2 expression compared to medium cultivated cells” value [4] was “increased”.

For `CC(=O)O[C@@]12CO[C@@H]1C[C@H](O)[C@@]1(C)C(=O)[C@H](O)C3=C(C)[C@@H](OC(=O)[C@H](O)[C@@H](NC(=O)OC(C)(C)C)c4ccccc4)C[C@@](O)([C@@H](OC(=O)c4ccccc4)[C@H]21)C3(C)C` [Docetaxel, docetaxel], the “potency of IMAB362 to induce ADCC” value [3] was “augmented”, the “level of viable cells compared to medium cultivated target cells” value [3] was “lower level of viable cells” and the “claudin18.2 expression compared to medium cultivated cells” value [4] was “increased”. The cell growth [5] was “dose dependent inhibition” and the “cell cycle arrest phase” value [2] was “G2-phase”.

In the case of `COc1cccc2c1C(=O)c1c(O)c3c(c(O)c1C2=O)C[C@@](O)(C(=O)CO)C[C@@H]3O[C@H]1C[C@H](N)[C@@H](O)[C@H](C)O1` [Epirubicin], the CLDN18.2-expression [1] is reported as “stabilize” and the “cell cycle phase in which cells are predominantly arrested/enriched” value [2] is reported as “G2-phase”.

In the case of `CCc1c2c(nc3ccc(OC(=O)N4CCC(N5CCCCC5)CC4)cc13)-c1cc3c(c(=O)n1C2)COC(=O)[C@]3(O)CC` [Irinotecan, (S)-4,11-diethyl-3,4,12,14-tetrahydro-4-hydroxy-3,14-dioxo1H-pyrano[3′,4′:6,7]-indolizino[1,2-b]quinolin-9-yl-[1,4′bipiperidine]-1′-carboxylate], the “potency of IMAB362 to induce ADCC” value [3] is reported as “augmented”, the “level of viable cells compared to medium cultivated target cells” value [3] is reported as “lower level of viable cells” and the “claudin18.2 expression compared to medium cultivated cells” value [4] is reported as “increased”. For the same molecule, the cell growth [5] was “dose dependent inhibition” and the “cell cycle arrest phase” value [2] was “S/G2-phase”.

In the case of `O=C1[O][Pt]2([NH][C@@H]3CCCC[C@H]3[NH]2)[O]C1=O` [Oxaliplatin, [(1R,2R)-cyclohexane-1,2-diamine](ethanedioato-O,O′)platinum(II)], the “cell cycle phase in which cells are predominantly arrested/enriched” value [2] is reported as “G1- and G2-phases”.

For `O=P(O)(O)C(O)(Cn1ccnc1)P(=O)(O)O` [ZA, [1-hydroxy-2-(1H-imidazol-1-yl)ethane-1,1-diyl]bis(phosphonic acid)], the “activation of Vγ9Vδ2 T cells (cytotoxicity and proliferation) by ZA-pulsed cancer cells” value [6] was “failed to elicit these effects”, the “expansion of cells in medium without ZA compared to with ZA (lower)” value [7] was “about 2 fold” and the “enrichment of Vγ9Vδ2 T cells with increase of monocytes, ZA-dependent” value [8] was “more than 10 fold”. The “activation of Vγ9Vδ2 T cell cytotoxicity by ZA-pulsed cancer cells” value [9] was 5-10 fold and the “activation of Vγ9Vδ2 T cell proliferation by ZA-pulsed cancer cells” value ([9]; 5 μM ZA for 2 days, co-culture 48 h, 3H-thymidine) was 1.4-1.8 fold.

IMAB362 (antibody) was tested, and the EC50 (read off the curve), ADCC on KatoIII cells pretreated 3 days with Irinotecan (Irino imab362) [10] was 1 µg/mL and the EC50 (read off the curve), ADCC on medium-cultivated KatoIII cells (Med imab362) [10] was 2 µg/mL.

“infliximab: isotype control antibody [reference compound]” was tested, and the “time within which all mice died” value [11] was 70 to 80 days.

With “rituximab: Dyelight 680-labeled negative control antibody (NUGC-4 negative for CD20) [reference compound]” the “signal of labeled antibody in NUGC-4 engrafted mice” value [12] was “No signal is detected”.
